Patent publication US10035804B2, “Spirodiamine derivatives as aldosterone synthase inhibitors” (Hoffmann-La Roche Inc., priority 2014, dated 2018)

What was measured:
human CYP11B1 = human CYP11B1 (Homo sapiens (Human), UniProt P15538); assay: G-402 cellular enzyme assay, human CYP11B1 (cortisol release); format: cell-based; settings: G-402 cells expressing human CYP11B1; 1 μM Deoxycortisol; cortisol in supernatant after 16 h
Text: (§1) Herein we identified the use of the G-402 cell line as a host cell to ectopically express (transiently or stably) enzymes of the CYP11 family. Specifically we developed stable G-402 cells expressing ectopically human CYP11B1, human CYP11B2, human CYP11A1, cynmolgus CYP11B1 or cynomolgus CYP11B2 enzyme activity. Importantly the identified cell line G-402 expresses co-factors (adrenodoxin and adrenodoxin reductase) important for the activity of the CYP11 family and no relevant enzyme activity of the CYP11 family (in comparison to H295R cells) was detected in these cells. Therefore the G-402 cell line is uniquely suited as a host cell for the ectopic expression of enzymes from the CYP11 family.
(§2) G-402 cells can be obtained from ATCC (CRL-1440) and were originally derived from a renal leiomyoblastoma.
(§3) The expression plasmids contains the ORF for either human/cyno CYP11B1 or CYP11B2 under the control of a suitable promoter (CMV-promoter) and a suitable resistance marker (neomycin). Using standard techniques the expression plasmid is transfected into G-402 cells and these cells are then selected for expressing the given resistance markers. Individual cell-clones are then selected and assessed for displaying the desired enzymatic activity using 11-Deoxycorticosterone (Cyp11B2) or 11-Deoxycortisol (Cyp11B1) as a substrate.
(§4) G-402 cells expressing CYP11 constructs were established as described above and maintained in McCoy's 5a Medium Modified, ATCC Catalog No. 30-2007 containing 10% FCS and 400 μg/ml G418 (Geneticin) at 37° C. under an atmosphere of 5% CO2/95% air. Cellular enzyme assays were performed in DMEM/F12 medium containing 2.5% charcoal treated FCS and appropriate concentration of substrate (0.3-10 uM 11-Deoxycorticosterone, 11-Deoxycortisol or Corticosterone). For assaying enzymatic activity, cells were plated onto 96 well plates and incubated for 16 h. An aliquot of the supernatant is then transferred and analyzed for the concentration of the expected product (Aldosterone for CYP11B2; Cortisol for CYP11B1). The concentrations of these steroids can be determined using HTRF assays from CisBio analyzing either Aldosterone or Cortisol.
(§5) Inhibition of the release of produced steroids can be used as a measure of the respective enzyme inhibition by test compounds added during the cellular enzyme assay. The dose dependent inhibition of enzymatic activity by a compound is calculated by means of plotting added inhibitor concentrations (x-axes) vs. measured steroid/product level (y-axes). The inhibition is then calculated by fitting the following 4-parameter sigmoidal function (Morgan-Mercer-Flodin (MMF) model) to the raw data points using the least squares method:
(§6) [formula] wherein, A is the maximum y value, B is the EC50 factor determined using XLFit, C is the minimum y value and D is the slope value.
(§7) EC50 values for compounds claimed herein were tested with the G402-based assay system described. Cyp11B2 enzyme activity was tested in presence of 1 μM Deoxycorticosterone and variable amounts of inhibitors; Cyp11B1 enzyme activity was tested in presence of 1 μM Deoxycortisol and variable amounts of inhibitors.

human CYP11B2 = human CYP11B2 (Homo sapiens (Human), UniProt P19099); assay: G-402 cellular enzyme assay, human CYP11B2 (aldosterone release); format: cell-based; settings: G-402 cells expressing human CYP11B2; 1 μM Deoxycorticosterone; aldosterone in supernatant after 16 h
Text: as §1, §2, §3, §4, §5, §6, §7

human CYP11B2, sequence (P19099 25-503): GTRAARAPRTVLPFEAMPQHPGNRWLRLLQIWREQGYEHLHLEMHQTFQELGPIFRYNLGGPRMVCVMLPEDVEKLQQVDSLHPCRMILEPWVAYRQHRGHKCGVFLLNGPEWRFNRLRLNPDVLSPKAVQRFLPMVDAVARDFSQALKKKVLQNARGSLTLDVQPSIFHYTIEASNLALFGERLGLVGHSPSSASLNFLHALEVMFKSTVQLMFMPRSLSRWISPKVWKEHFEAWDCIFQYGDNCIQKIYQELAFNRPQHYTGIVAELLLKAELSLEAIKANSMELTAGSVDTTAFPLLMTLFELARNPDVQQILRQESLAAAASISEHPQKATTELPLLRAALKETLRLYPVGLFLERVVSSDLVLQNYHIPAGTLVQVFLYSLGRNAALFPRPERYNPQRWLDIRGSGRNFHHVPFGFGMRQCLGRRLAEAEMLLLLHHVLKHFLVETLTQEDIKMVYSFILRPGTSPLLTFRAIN
human CYP11B1, sequence (P15538 25-503): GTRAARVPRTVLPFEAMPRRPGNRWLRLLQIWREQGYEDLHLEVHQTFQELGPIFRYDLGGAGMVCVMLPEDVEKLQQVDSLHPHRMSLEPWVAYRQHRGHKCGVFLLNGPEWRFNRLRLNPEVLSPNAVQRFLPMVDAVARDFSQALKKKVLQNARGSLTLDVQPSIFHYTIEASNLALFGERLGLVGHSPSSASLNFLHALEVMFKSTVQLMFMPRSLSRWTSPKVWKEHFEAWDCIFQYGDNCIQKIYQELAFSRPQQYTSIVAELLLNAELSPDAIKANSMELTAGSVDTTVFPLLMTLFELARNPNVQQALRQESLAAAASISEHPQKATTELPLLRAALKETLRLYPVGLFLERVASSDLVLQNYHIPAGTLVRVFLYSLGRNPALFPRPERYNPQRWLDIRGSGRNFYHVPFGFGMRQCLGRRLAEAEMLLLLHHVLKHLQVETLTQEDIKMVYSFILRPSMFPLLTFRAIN

Row | SMILES | EC50 (human CYP11B1) | EC50 (human CYP11B2)
1 | Cn1cc(C(=O)N2CC3(C2)CN(c2cncc(N4C(=O)c5ccc(Cl)cc5C45CC5)c2)C3)cn1 [Example 19, 5′-Chloro-2′-[5-[2-(1-methylpyrazole-4-carbonyl)-2,6-diazaspiro[3.3]heptan-6-yl]-3-pyridyl]spiro[cyclopropane-1,3′-isoindoline]-1′-one] | 7690 pM | 2.9 pM
2 | Cc1ccncc1C(=O)N1CC2(C1)CN(c1cncc(N3C(=O)c4ccc(Cl)cc4C34CC4)c1)C2 [Example 20, 5′-Chloro-2′-[5-[2-(4-methylpyridine-3-carbonyl)-2,6-diazaspiro[3.3]heptan-6-yl]-3-pyridyl]spiro[cyclopropane-1,3′-isoindoline]-1′-one] | 20000 pM | 19.5 pM
3 | Cn1nccc1C(=O)N1CC2(C1)CN(c1cncc(N3C(=O)c4ccc(Cl)cc4C34CC4)c1)C2 [Example 21, 5′-Chloro-2′-[5-[2-(2-methylpyrazole-3-carbonyl)-2,6-diazaspiro[3.3]heptan-6-yl]-3-pyridyl]spiro[cyclopropane-1,3′-isoindoline]-1′-one] | > 30000 pM | 294 pM
4 | COc1ccncc1C(=O)N1CC2(C1)CN(c1cncc(N3C(=O)c4ccc(Cl)cc4C3(C)C)c1)C2 [Example 24, 5-Chloro-2-[5-[2-(4-methoxypyridine-3-carbonyl)-2,6-diazaspiro[3.3]heptan-6-yl]-3-pyridyl]-3,3-dimethyl-isoindolin-1-one] | 17200 pM | 44.9 pM
5 | Cc1c(C(=O)N2CC3(C2)CN(c2cncc(N4C(=O)c5ccc(Cl)cc5C4(C)C)c2)C3)cnn1C [Example 26, 5-Chloro-2-[5-[2-(1,5-dimethylpyrazole-4-carbonyl)-2,6-diazaspiro[3.3]heptan-6-yl]-3-pyridyl]-3,3-dimethyl-isoindolin-1-one] | 35500 pM | 77.5 pM
6 | Cc1nocc1C(=O)N1CC2(C1)CN(c1cncc(N3C(=O)c4ccc(Cl)cc4C3(C)C)c1)C2 [Example 27, 5-Chloro-3,3-dimethyl-2-[5-[2-(3-methylisoxazole-4-carbonyl)-2,6-diazaspiro[3.3]heptan-6-yl]-3-pyridyl]isoindolin-1-one] | 14000 pM | 104 pM
7 | Cc1cncc(C(=O)N2CC3(C2)CN(c2cncc(N4C(=O)c5ccc(Cl)cc5C4(C)C)c2)C3)n1 [Example 28, 5-Chloro-3,3-dimethyl-2-[5-[2-(6-methylpyrazine-2-carbonyl)-2,6-diazaspiro[3.3]heptan-6-yl]-3-pyridyl]isoindolin-1-one] | 640 pM | 57.7 pM
8 | Cc1ncncc1C(=O)N1CC2(C1)CN(c1cncc(N3C(=O)c4ccc(Cl)cc4C3(C)C)c1)C2 [Example 29, 5-Chloro-3,3-dimethyl-2-[5-[2-(4-methylpyrimidine-5-carbonyl)-2,6-diazaspiro[3.3]heptan-6-yl]-3-pyridyl]isoindolin-1-one] | > 30000 pM | 74.8 pM
9 | Cc1cnc(C(=O)N2CC3(C2)CN(c2cncc(N4C(=O)c5ccc(Cl)cc5C4(C)C)c2)C3)cn1 [Example 30, 5-Chloro-3,3-dimethyl-2-[5-[2-(5-methylpyrazine-2-carbonyl)-2,6-diazaspiro[3.3]heptan-6-yl]-3-pyridyl]isoindolin-1-one] | 3750 pM | 45.6 pM
10 | Cc1cc(C(=O)N2CC3(C2)CN(c2cncc(N4C(=O)c5ccc(Cl)cc5C4(C)C)c2)C3)n(C)n1 [Example 31, 5-Chloro-2-[5-[2-(2,5-dimethylpyrazole-3-carbonyl)-2,6-diazaspiro[3.3]heptan-6-yl]-3-pyridyl]-3,3-dimethyl-isoindolin-1-one] | 6430 pM | 154 pM
11 | Cc1ocnc1C(=O)N1CC2(C1)CN(c1cncc(N3C(=O)c4ccc(Cl)cc4C3(C)C)c1)C2 [Example 32, 5-Chloro-3,3-dimethyl-2-[5-[2-(5-methyloxazole-4-carbonyl)-2,6-diazaspiro[3.3]heptan-6-yl]-3-pyridyl]isoindolin-1-one] | 5370 pM | 14.9 pM
12 | CC1(C)c2cc(Cl)ccc2C(=O)N1c1cncc(N2CC3(CN(C(=O)c4ncccn4)C3)C2)c1 [Example 33, 5-Chloro-3,3-dimethyl-2-[5-[2-(pyrimidine-2-carbonyl)-2,6-diazaspiro[3.3]heptan-6-yl]-3-pyridyl]isoindolin-1-one] | 1750 pM | 49.7 pM
13 | Cc1cnc(C(=O)N2CC3(C2)CN(c2cncc(N4C(=O)c5ccc(Cl)cc5C4(C)C)c2)C3)nc1 [Example 34, 5-Chloro-3,3-dimethyl-2-[5-[2-(5-methylpyrimidine-2-carbonyl)-2,6-diazaspiro[3.3]heptan-6-yl]-3-pyridyl]isoindolin-1-one] | 9550 pM | 97 pM
14 | Cn1cc(C(=O)N2CC3(C2)CN(c2cncc(N4C(=O)c5ccc(Cl)cc5C4(C)C)c2)C3)c(C(F)F)n1 [Example 35, 5-Chloro-2-[5-[2-[3-(difluoromethyl)-1-methyl-pyrazole-4-carbonyl]-2,6-diazaspiro[3.3]heptan-6-yl]-3-pyridyl]-3,3-dimethyl-isoindolin-1-one] | 29500 pM | 333 pM
15 | CC1(C)c2cc(Cl)ccc2C(=O)N1c1cncc(N2CC3(CN(C(=O)c4cncc(C#N)c4)C3)C2)c1 [Example 36, 5-[6-[5-(6-Chloro-1,1-dimethyl-3-oxo-isoindolin-2-yl)-3-pyridyl]-2,6-diazaspiro[3.3]heptane-2-carbonyl]pyridine-3-carbonitrile] | 31000 pM | 45.7 pM
16 | COc1nccnc1C(=O)N1CC2(C1)CN(c1cncc(N3C(=O)c4ccc(Cl)cc4C3(C)C)c1)C2 [Example 37, 5-Chloro-2-[5-[2-(3-methoxypyrazine-2-carbonyl)-2,6-diazaspiro[3.3]heptan-6-yl]-3-pyridyl]-3,3-dimethyl-isoindolin-1-one] | 16100 pM | 75.4 pM
17 | CC1(C)c2cc(Cl)ccc2C(=O)N1c1cncc(N2CC3(CN(C(=O)c4cnccn4)C3)C2)c1 [Example 38, 5-Chloro-3,3-dimethyl-2-[5-[2-(pyrazine-2-carbonyl)-2,6-diazaspiro[3.3]heptan-6-yl]-3-pyridyl]isoindolin-1-one] | 2320 pM | 26.8 pM
18 | Cc1oncc1C(=O)N1CC2(C1)CN(c1cncc(N3C(=O)c4ccc(Cl)cc4C3(C)C)c1)C2 [Example 39, 5-Chloro-3,3-dimethyl-2-[5-[2-(5-methylisoxazole-4-carbonyl)-2,6-diazaspiro[3.3]heptan-6-yl]-3-pyridyl]isoindolin-1-one] | 9680 pM | 28.2 pM
19 | CC1(C)c2cc(Cl)ccc2C(=O)N1c1cncc(N2CC3(CN(C(=O)c4cncnc4)C3)C2)c1 [Example 40, 5-Chloro-3,3-dimethyl-2-[5-[2-(pyrimidine-5-carbonyl)-2,6-diazaspiro[3.3]heptan-6-yl]-3-pyridyl]isoindolin-1-one] | 12000 pM | 54.2 pM
20 | Cc1ncoc1C(=O)N1CC2(C1)CN(c1cncc(N3C(=O)c4ccc(Cl)cc4C3(C)C)c1)C2 [Example 41, 5-Chloro-3,3-dimethyl-2-[5-[2-(4-methyloxazole-5-carbonyl)-2,6-diazaspiro[3.3]heptan-6-yl]-3-pyridyl]isoindolin-1-one] | 28400 pM | 109 pM
21 | CC1(C)c2cc(Cl)ccc2C(=O)N1c1cncc(N2CC3(CN(C(=O)c4cocn4)C3)C2)c1 [Example 42, 5-Chloro-3,3-dimethyl-2-[5-[2-(oxazole-4-carbonyl)-2,6-diazaspiro[3.3]heptan-6-yl]-3-pyridyl]isoindolin-1-one] | 1050 pM | 10.2 pM
22 | Cc1ncc(C(=O)N2CC3(C2)CN(c2cncc(N4C(=O)c5ccc(Cl)cc5C4(C)C)c2)C3)o1 [Example 43, 5-Chloro-3,3-dimethyl-2-[5-[2-(2-methyloxazole-5-carbonyl)-2,6-diazaspiro[3.3]heptan-6-yl]-3-pyridyl]isoindolin-1-one] | 18000 pM | 18 pM
23 | Cc1nc(C)c(C(=O)N2CC3(C2)CN(c2cncc(N4C(=O)c5ccc(Cl)cc5C4(C)C)c2)C3)o1 [Example 44, 5-Chloro-2-[5-[2-(2,4-dimethyloxazole-5-carbonyl)-2,6-diazaspiro[3.3]heptan-6-yl]-3-pyridyl]-3,3-dimethyl-isoindolin-1-one] | 18000 pM | 90.7 pM
